# Measurements published in patent US8323971B2, “Differentiation of pluripotent cells into primary germ layer progenitors” (Cambridge Enterprise Limited, priority 2006, dated 2012).
# Test system: hESCs
# Experiment: Microarray analysis of hESCs grown 36 h in CDM alone or CDM plus BMP4
# Format: cell-based, human
# Conditions: hESCs 36 h, CDM plus 10 ng/ml BMP4 vs CDM alone
# Source text: The change in RNA expression of genes associated with particular cell types is indicated in the following panels. […] In all tables, the ‘margin’ value represents the fold change in mRNA expression (log 2 scale) with a negative value indicating down regulation after BMP4 treatment compared to CDM alone.
# Sample RNA was hybridized to Affymetrix hg-u133+2 GeneChips ©. All sample arrays were background corrected, normalized and summarized using default parameters of the RMA model. Array processing was performed using the affy package of the Bioconductor (found on the world wide web at the hypertext protocol transfer address of “bioconductor.org”) suite of software for the R statistical programming language (found on the world wide web at the hypertext protocol transfer address of “r-project.org”). The resulting data set contained processed gene expression values for 54675 probe-sets. Analysis of Differential Regulation: The moderated t-statistic […], implemented in the Limma package of Bioconductor, was employed to assess the significance of differential gene (probe-set) expression between sample groups. In order to reduce errors associated with multiple hypothesis testing on such a scale, the significance p-values obtained were converted to corrected q-values using the FDR method.
# Data Visualisation: Heat maps of gene expression were created by importing relevant subsets of RMA processed microarray gene expression data into the dChip v1.3 microarray analysis package (found on the world wide web at the hypertext protocol transfer address of “biostat.harvard.edu/complab/dchip/”). In the case wherein a gene is represented by more than one probe-set on the array, a single probe-set was chosen to represent gene expression in the heat map according to highest mean expression over all samples (i.e. the most reliable sample hybridization regardless of group membership).
substance,measurement,value
BMP4: Bone Morphogenetic Protein 4 growth factor,"Margin, ACTC mRNA",4.16 log 2 scale
same,"Margin, ADRA2A mRNA",−2.49 log 2 scale
same,"Margin, AGTRL1 mRNA",4.35 log 2 scale
same,"Margin, AK3 mRNA",−2.55 log 2 scale
same,"Margin, ARGBP2 mRNA",−3.43 log 2 scale
same,"Margin, BAMBI mRNA",3.86 log 2 scale
same,"Margin, C2orf31 mRNA",−2.72 log 2 scale
same,"Margin, C10orf13 mRNA",−2.63 log 2 scale
same,"Margin, C14orf29 mRNA",−2.44 log 2 scale
same,"Margin, CACNA2D3 mRNA",−2.42 log 2 scale
same,"Margin, CDH11 mRNA",3.81 log 2 scale
same,"Margin, CFC1 mRNA",4.45 log 2 scale
same,"Margin, CHST9 mRNA",−2.54 log 2 scale
same,"Margin, CLIC5 mRNA",5.04 log 2 scale
same,"Margin, COL3A1 mRNA",4.47 log 2 scale
same,"Margin, CRH mRNA",5.13 log 2 scale
same,"Margin, CUZD1 mRNA",−2.4 log 2 scale
same,"Margin, CYP26A1 mRNA",−2.51 log 2 scale
same,"Margin, D21S2088E mRNA",−2.67 log 2 scale
same,"Margin, DIO2 mRNA",4.29 log 2 scale
same,"Margin, DKK4 mRNA",−3.09 log 2 scale
same,"Margin, DLX2 mRNA",6.43 log 2 scale
same,"Margin, DLX5 mRNA",4.04 log 2 scale
same,"Margin, DLX6 mRNA",4.66 log 2 scale
same,"Margin, EFNA1 mRNA",4.35 log 2 scale
same,"Margin, EPAS1 mRNA",6.2 log 2 scale
same,"Margin, ETV1 mRNA",−2.49 log 2 scale
same,"Margin, FLJ25477 mRNA",4.77 log 2 scale
same,"Margin, FLJ90231 mRNA",−3.15 log 2 scale
same,"Margin, FOXA2 mRNA (splice variant)",−3.38 log 2 scale
same,"Margin, FOXF1 mRNA",4.84 log 2 scale
same,"Margin, GABRP mRNA",7.34 log 2 scale
same,"Margin, GATA3 mRNA",6.21 log 2 scale
same,"Margin, GATA5 mRNA",4 log 2 scale
same,"Margin, GDF3 mRNA",−3.47 log 2 scale
same,"Margin, GPR64 mRNA",−2.46 log 2 scale
same,"Margin, H19 mRNA",3.98 log 2 scale
same,"Margin, HAND1 mRNA",7.27 log 2 scale
same,"Margin, HAPLN1 mRNA",8.04 log 2 scale
same,"Margin, HESX1 mRNA",−2.36 log 2 scale
same,"Margin, HEY1 mRNA",3.93 log 2 scale
same,"Margin, HHEX mRNA",−2.58 log 2 scale
same,"Margin, HOXB6 mRNA",5.19 log 2 scale
same,"Margin, ID4 mRNA",5.47 log 2 scale
same,"Margin, IGFBP3 mRNA",4.44 log 2 scale
same,"Margin, IPO9 mRNA",−2.83 log 2 scale
same,"Margin, ISL1 mRNA",6.5 log 2 scale
same,"Margin, KAL1 mRNA",−2.98 log 2 scale
same,"Margin, KCND2 mRNA",−2.74 log 2 scale
same,"Margin, KCTD12 mRNA",4.01 log 2 scale
same,"Margin, KIAA0882 mRNA",3.81 log 2 scale
same,"Margin, KLF4 mRNA",−2.4 log 2 scale
same,"Margin, KRT7 mRNA",3.91 log 2 scale
same,"Margin, LCK mRNA",−2.65 log 2 scale
same,"Margin, LECT1 mRNA",−2.55 log 2 scale
same,"Margin, LEFTY1 mRNA",−6.56 log 2 scale
same,"Margin, LEFTY2 mRNA",−3.12 log 2 scale
same,"Margin, LIX1 mRNA",4.3 log 2 scale
same,"Margin, LOC152573 mRNA",−5.04 log 2 scale
same,"Margin, LOC153469 mRNA",−4.72 log 2 scale
same,"Margin, LOC387763 mRNA",4.25 log 2 scale
same,"Margin, LRAT mRNA",−4.97 log 2 scale
same,"Margin, LRIG1 mRNA",−2.82 log 2 scale
same,"Margin, LUM mRNA",5.88 log 2 scale
same,"Margin, MAL2 mRNA",−2.37 log 2 scale
same,"Margin, MEGF10 mRNA",−3.14 log 2 scale
same,"Margin, MEIS1 mRNA",4.02 log 2 scale
same,"Margin, MESP1 mRNA",4.03 log 2 scale
same,"Margin, MGC26963 mRNA",−4.02 log 2 scale
same,"Margin, MSX1 mRNA",4.28 log 2 scale
same,"Margin, MSX2 mRNA",5.43 log 2 scale
same,"Margin, MYOCD mRNA",4.49 log 2 scale
same,"Margin, NANOG mRNA",−3.22 log 2 scale
same,"Margin, NCRMS mRNA",−2.98 log 2 scale
same,"Margin, NFE2L3 mRNA",−2.74 log 2 scale
same,"Margin, NODAL mRNA",−2.93 log 2 scale
same,"Margin, NOG mRNA",4.37 log 2 scale
same,"Margin, OLIG3 mRNA",−3.9 log 2 scale
same,"Margin, OTX2 mRNA",−4.89 log 2 scale
same,"Margin, PAPLN mRNA",−3.53 log 2 scale
same,"Margin, PARG1 mRNA",4.04 log 2 scale
same,"Margin, PIPOX mRNA",−2.58 log 2 scale
same,"Margin, POSTN mRNA",5.83 log 2 scale
same,"Margin, PPP2R2B mRNA",−3.6 log 2 scale
same,"Margin, PRKD1 mRNA",3.91 log 2 scale
same,"Margin, PRSS12 mRNA",4.09 log 2 scale
same,"Margin, PTPRZ1 mRNA",−2.37 log 2 scale
same,"Margin, RAM2 mRNA",−2.8 log 2 scale
same,"Margin, RET mRNA",−2.97 log 2 scale
same,"Margin, RGS4 mRNA",3.85 log 2 scale
same,"Margin, RGS5 mRNA",4.46 log 2 scale
same,"Margin, RGS13 mRNA",4.42 log 2 scale
same,"Margin, SEMA3C mRNA",3.89 log 2 scale
same,"Margin, SFRP1 mRNA",−2.36 log 2 scale
same,"Margin, SFRP2 mRNA",−2.75 log 2 scale
same,"Margin, SLC1A6 mRNA",−2.39 log 2 scale
same,"Margin, SLC16A4 mRNA",4 log 2 scale
same,"Margin, SLC40A1 mRNA",4.19 log 2 scale
same,"Margin, SNAI2 mRNA",4.92 log 2 scale
same,"Margin, SOCS3 mRNA",3.98 log 2 scale
same,"Margin, SOX2 mRNA",−3.64 log 2 scale
same,"Margin, SOX7 mRNA",4.13 log 2 scale
same,"Margin, SYNPO2 mRNA",4.46 log 2 scale
same,"Margin, TBX3 mRNA",6.42 log 2 scale
same,"Margin, TFAP2A mRNA",4.98 log 2 scale
same,"Margin, TFCP2L2 mRNA",3.87 log 2 scale
same,"Margin, TFCP2L4 mRNA",4.92 log 2 scale
same,"Margin, THBS2 mRNA",−3.73 log 2 scale
same,"Margin, TIMP4 mRNA",−2.9 log 2 scale
same,"Margin, TMEM46 mRNA",−3.57 log 2 scale
same,"Margin, TOX mRNA",−3.03 log 2 scale
same,"Margin, TRIM55 mRNA",4.24 log 2 scale
same,"Margin, TRPC4 mRNA",−2.52 log 2 scale
same,"Margin, UGT8 mRNA",−3.57 log 2 scale
same,"Margin, USP44 mRNA",−3.63 log 2 scale
same,"Margin, UTF1 mRNA",−2.47 log 2 scale
